Laboratory results: patent US20180207294A1, “NON-ALCOHOLIC FATTY LIVER REGULATING FACTOR 14-3-3 PROTEIN” (Korea University Research and Business Foundation, priority 2015, published 2018)

Key:
[1] = tested on: primary mouse hepatocytes; test: PPARγ2 target gene mRNA (real-time PCR) with 14-3-3 overexpression and oleic acid, primary mouse hepatocytes; format: cell-based; details: 14-3-3 overexpression, oleic acid, FIG. 7B
Protocol: HepG2 cells were seeded in a 6-well plate at a density of 4×10^5 cells per each well, and then transfected with GFP-14-3-3β DNA (4 μg) or GFP-14-3-3γ DNA (4 μg) using an E-fection plus reagent (Lugen). A ratio of DNA to the E-fection plus reagent was 1:2, and this method was performed according to a manufacturer's manual. After transfection, the cells were treated with 200 μM of oleic acid (OA) for 72 hours, and for mRNA extraction, the corresponding cells were lysed with 1 ml/well of TRIzol (Invitrogen), 200 μl of chloroform was added thereto and mixed well, the resultant cells were maintained at room temperature for 5 minutes and then centrifuged at 12,000×g and 4° C. for 15 minutes, the obtained supernatant was mixed with 500 μl of isopropanol and then put on ice for 10 minutes, and the resulting supernatant was centrifuged at 12,000×g and 4° C. for 15 minutes to remove a supernatant, and then pellets were dissolved with tertiary distilled water treated with diethyl pyrocarbonate (DEPC). 2 μg of mRNA was synthesized into cDNA using a Superscript First Strand cDNA Synthesis Kit (Bioneer, Daejeon, South Korea) and the synthesized cDNA as a template was amplified through polymerase chain reaction (PCR) using primers specific to PPARγ2 (SEQ ID NOS: 1 and 2), 14-3-3β (SEQ ID NOS: 3 and 4), 14-3-3γ (SEQ ID NOS: 5 and 6), SREBP-1c, FAT/CD36, and β-actin of humans, and was amplified through real-time PCR using primers specific to SREBP-1c, FAT/CD36, and GAPDH of mice. β-actin and GAPDH were used as controls to see whether mRNAs of the respective cells were compared in the same amount.

[2] = target: T1, PPARγ2 S273A mutant (Homo sapiens, UniProt P37231, S273A); test: GST-pull down assay with PPARγ2 S112A and S273A mutants (HEK-293T); format: binding; details: FIG. 4A, 4B
T1 construct: expressed in transfected cells; host or cells: HEK-293T
T1 sequence (P37231 1-505 S273A): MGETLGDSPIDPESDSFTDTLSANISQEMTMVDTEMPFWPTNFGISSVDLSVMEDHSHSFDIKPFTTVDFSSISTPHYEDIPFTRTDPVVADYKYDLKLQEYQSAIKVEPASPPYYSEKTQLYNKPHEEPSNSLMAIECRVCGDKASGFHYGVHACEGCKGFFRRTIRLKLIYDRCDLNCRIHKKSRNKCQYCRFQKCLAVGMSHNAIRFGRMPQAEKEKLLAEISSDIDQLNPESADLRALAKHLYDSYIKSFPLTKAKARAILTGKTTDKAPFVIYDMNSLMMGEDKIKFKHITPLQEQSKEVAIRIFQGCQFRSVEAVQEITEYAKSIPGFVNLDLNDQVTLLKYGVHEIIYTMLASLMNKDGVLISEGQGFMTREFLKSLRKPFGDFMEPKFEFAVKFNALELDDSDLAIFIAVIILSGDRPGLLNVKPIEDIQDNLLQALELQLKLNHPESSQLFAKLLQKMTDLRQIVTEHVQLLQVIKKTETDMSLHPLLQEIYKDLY
Protocol: 14-3-3 proteins are known to bind to phosphorylated residues of a target protein. Phosphorylated residues associated with the activity of PPARγ2 are known to be serine 112 and serine 273. Thus, PPARγ2 mutants (PPARγ2 S112A and S273A) with non-phosphorylated serine 112 and serine 273 residues were produced and binding thereof with 14-3-3 proteins was verified through GST-pull down assay.
HEK-293T cells were seeded in a 100 mm plate at a density of 2×10^6 cells per each well, and then transfected with Flag-PPARγ2 (WT) DNA (4 μg), Flag-PPARγ2 (S112A) DNA (4 μg), Flag-PPARγ2(S273A) DNA (4 μg), and mGST-14-3-3β (4 μg) or mGST-14-3-3γ (4 μg) using an E-fection plus reagent (Lugen). As for Flag-PPARγ2 (S112A) DNA and Flag-PPARγ2 (S273A) DNA, DNA fragments amplified through polymerase chain reaction (PCR) were cloned into a Flag-tagged vector. A ratio of DNA to the E-fection plus reagent was 1:2, and this method was performed according to a manufacturer's manual. The corresponding cells were washed with ice-cold PBS and lysed using 500 μl/well of a lysis buffer (150 mM NaCl, 1 mM EDTA, 1% Nonidet P-40, 5% glycerol, 25 mM tris-HCl, pH 7.5, protease inhibitor added), and the lysed cells were centrifuged at 10,000×g and 4° C. for 10 minutes to extract proteins. […]

Substance | mRNA expression of FAT/CD36 [1] | mRNA expression of SREBP-1c [1] | binding with PPARγ2 S273A mutant [2]
14-3-3β: 14-3-3 isoform protein, overexpressed by DNA transfection; regulating factor that increases transcriptional activity of PPARγ2 | further increased | further increased | suppressed
14-3-3γ: 14-3-3 isoform protein, overexpressed by DNA transfection; regulating factor that decreases transcriptional activity of PPARγ2 | reduced | reduced | suppressed
